Test results published in article PMC6222660, “Antiviral 4-Hydroxypleurogrisein and Antimicrobial Pleurotin Derivatives from Cultures of the Nematophagous Basidiomycete Hohenbuehelia grisea” (Molecules : A Journal of Synthetic Chemistry and Natural …, 2018).
In brackets after ≈: the same amount, converted by molar mass. Read-outs that look alike come from different tables or passages of the source.

How the values were obtained:
Type in all cases: cell-based
Bacillus subtilis DSM10 = assay: MIC serial dilution assay; set-up: key: -: no inhibition observed under test conditions; conditions: highest concentration 67 or 100 µg/mL
Excerpt: (§1) The minimum inhibitory concentration (MIC) for each compound was ascertained in a serial dilution assay in 96-well microtiter plates, as previously published by Kuhnert et al., using YM media for yeasts and filamentous fungi and BD^TM Difco™ Mueller Hinton Broth for bacteria.

Candida albicans DSM1665 = assay: MIC serial dilution assay; set-up: key: -: no inhibition observed under test conditions; conditions: highest concentration 67 or 100 µg/mL
Excerpt: as §1

Candida tenuis MUCL29892 = assay: MIC serial dilution assay; set-up: key: -: no inhibition observed under test conditions; conditions: highest concentration 67 or 100 µg/mL
Excerpt: as §1

[1] = system: Micrococcus luteus DSM1790; assay: MIC serial dilution assay; set-up: key: -: no inhibition observed under test conditions; conditions: highest concentration 67 or 100 µg/mL
Excerpt: as §1

Mucor hiemalis DSM2656 = assay: MIC serial dilution assay; set-up: key: -: no inhibition observed under test conditions; conditions: highest concentration 67 or 100 µg/mL
Excerpt: as §1

Mucor plumbeus MUCL49355 = assay: MIC serial dilution assay; set-up: key: -: no inhibition observed under test conditions; conditions: highest concentration 67 or 100 µg/mL
Excerpt: as §1

Pichia anomala DSM6766 = assay: MIC serial dilution assay; set-up: key: -: no inhibition observed under test conditions; conditions: highest concentration 67 or 100 µg/mL
Excerpt: as §1

[2] = system: Rhodotorula glutinis DSM10134; assay: MIC serial dilution assay; set-up: key: -: no inhibition observed under test conditions; conditions: highest concentration 67 or 100 µg/mL
Excerpt: as §1

[3] = system: Staphylococcus aureus DSM346; assay: MIC serial dilution assay; set-up: key: -: no inhibition observed under test conditions; conditions: highest concentration 67 or 100 µg/mL
Excerpt: as §1

[4] = system: cervix carcinoma cell line KB3.1; assay: In vitro cytotoxicity assay; conditions: Homo sapiens, KB 3-1, 120 h, 6 × 10^3 cells/well, treated over five days
Experimental: (§2) In vitro cytotoxicity assay was performed as described by Richter et al. against the mouse fibroblast cell line L929 and the cervix carcinoma cell line KB3.1.

[5] = system: mouse fibroblast cell line L929; assay: In vitro cytotoxicity assay; conditions: 120 h, 6 × 10^3 cells/well, treated over five days
Experimental: as §2

hepatitis C virus (HCV) = assay: Inhibitory effects on HCV infectivity (Renilla luciferase reporter virus in Huh-7.5 cells); conditions: for activity in the HCV assay in vitro: Huh-7.5 host cells
Experimental: (§3) Figure 4 Antiviral activity of 4-hydroxypleurogrisin (11). NC-Negative control, EGCG-Positive control. HCV assay was performed in triplicates and is presented as the mean ± standard deviation. The asterisk indicates statistically significant differences (* p ≤ 0.05, ** p ≤ 0.01, *** p ≤ 0.001). Huh-7.5 cells were inoculated with RLuc-Jc1 reporter viruses in the presence of 4-hydroxypleurogrisein. The inoculum was removed 4 h later and monolayers were washed three times with PBS and overlaid with fresh medium containing no inhibitors. Infected cells were lysed three days later, and reporter virus infection was determined by renilla luciferase activity (top). The cell viability was measured by determination of firefly luciferase (bottom), which is stably expressed in the target cells.
This assay was carried out as described previously by Mulwa et al.. Huh7.5 cells stably expressing Firefly luciferase (Huh7.5 Fluc) were cultured in Dulbecco’s modified minimum essential medium (DMEM, Life Technologies, Darmstadt, Germany) containing 2 mM L glutamine, 1 × minimum essential medium nonessential amino acids (MEM NEAA, Life Technologies), 100 μg/mL streptomycin, 100 IU/mL penicillin (Life Technologies), 5 μg/mL blasticidin and 10% fetal bovine serum. Cells were maintained in a 37 °C environment with 5% CO2 supply. Cells were infected with Jc1-derived Renilla reporter viruses in the presence or absence of compounds as described previously. Infected cells were lysed and then frozen at −80 °C for 1 h following measurements of Renilla and Firefly luciferase activities on a Berthold Technologies Centro XS3 Microplate Luminometer (Bad Wildbad, Germany) as indicators of viral genome replication and cell viability, respectively.

Huh7.5 Fluc cells = assay: Cell viability in HCV assay (firefly luciferase); conditions: at 20 ng/µL
Experimental: as §3
This assay was carried out as described previously by Mulwa et al.. Huh7.5 cells stably expressing Firefly luciferase (Huh7.5 Fluc) were cultured in Dulbecco’s modified minimum essential medium (DMEM, Life Technologies, Darmstadt, Germany) containing 2 mM L glutamine, 1 × minimum essential medium nonessential amino acids (MEM NEAA, Life Technologies), 100 μg/mL streptomycin, 100 IU/mL penicillin (Life Technologies), 5 μg/mL blasticidin and 10% fetal bovine serum. Cells were maintained in a 37 °C environment with 5% CO2 supply. […]

[6] = Yamadazyma tenuis, read-out: MIC
[7] = Hansenula anomala, read-out: MIC

| Molecule | MIC (Bacillus subtilis DSM10; read-out: MIC) | MIC (Candida tenuis MUCL29892; [6]) | MIC ([3]; read-out: MIC) | IC50 [4] | IC50 [5] | MIC (Candida albicans DSM1665) | MIC (Mucor plumbeus MUCL49355) | MIC [1] | MIC (Mucor hiemalis DSM2656) | MIC (Pichia anomala DSM6766) | MIC [3] | MIC (Candida tenuis MUCL29892) | MIC [2] | other results |
| --- | --- | --- | --- | --- | --- | --- | --- | --- | --- | --- | --- | --- | --- | --- |
| C[C@@H]1CO[C@@H]2C3=C(C(=O)C=CC3=O)[C@H]3OC(=O)[C@@H]4CC[C@H]5[C@@H]1CC[C@@]25[C@@H]34 [Compound 1, pleurotin] | 50 µg/mL (≈ 141 µM) | 25 µg/mL (≈ 70.5 µM) | 33.3 µg/mL (≈ 94 µM) | 8.5 µg/mL (≈ 24 µM) | 7.5 µg/mL (≈ 21.2 µM) |  |  |  |  |  |  |  |  | MIC (Candida albicans DSM1665; read-out: MIC): 33.3 µg/mL (≈ 94 µM); MIC ([1]; read-out: MIC): 66.7 µg/mL (≈ 188 µM); MIC (Mucor hiemalis DSM2656; read-out: MIC): 8.3 µg/mL (≈ 23.4 µM); MIC (Mucor plumbeus MUCL49355; read-out: MIC): 100 µg/mL (≈ 282 µM); MIC (Pichia anomala DSM6766; [7]): 66.7 µg/mL (≈ 188 µM); MIC ([2]; read-out: MIC): 16.7 µg/mL (≈ 47.1 µM) |
| C[C@@H]1CO[C@@H]2c3c(O)ccc(O)c3[C@H]3OC(=O)[C@@H]4CC[C@H]5[C@@H]1CC[C@@]25[C@@H]34 [Compound 2, leucopleurotin, reference compound] | 25 µg/mL (≈ 70.1 µM) | 100 µg/mL (≈ 281 µM) | 33.3 µg/mL (≈ 93.4 µM) | 2.8 µg/mL (≈ 7.86 µM) | 2.2 µg/mL (≈ 6.17 µM) | - | - |  |  |  |  |  |  | MIC ([1]; read-out: MIC): 66.7 µg/mL (≈ 187 µM); MIC (Mucor hiemalis DSM2656; read-out: MIC): 33.3 µg/mL (≈ 93.4 µM); MIC (Pichia anomala DSM6766; [7]): 66.7 µg/mL (≈ 187 µM); MIC ([2]; read-out: MIC): 33.3 µg/mL (≈ 93.4 µM) |
| CC1COC2C3=C(CC4C(C(=O)O)CCC5C1CCC245)C(=O)C=CC3=O (stereo not drawn) [Compound 3, dihydropleurotinic acid, reference compound] | 100 µg/mL (≈ 281 µM) | 100 µg/mL (≈ 281 µM) | 66.7 µg/mL (≈ 187 µM) | 18 µg/mL (≈ 50.5 µM) | 18 µg/mL (≈ 50.5 µM) | - |  | - |  |  |  |  |  | MIC (Mucor hiemalis DSM2656; read-out: MIC): 16.7 µg/mL (≈ 46.9 µM); MIC (Mucor plumbeus MUCL49355; read-out: MIC): 100 µg/mL (≈ 281 µM); MIC (Pichia anomala DSM6766; [7]): 66.7 µg/mL (≈ 187 µM); MIC ([2]; read-out: MIC): 33.3 µg/mL (≈ 93.4 µM) |
| CC1COC2C3=C(CC4C(C(=O)O)CCC5C1(O)CCC245)C(=O)C=CC3=O (stereo not drawn) [Compound 5, 3-Hydroxy-dihydropleurotinic acid] | 100 µg/mL (≈ 269 µM) | 100 µg/mL (≈ 269 µM) |  | 22 µg/mL (≈ 59.1 µM) | 22 µg/mL (≈ 59.1 µM) | - | - | - | - | - | - |  |  | MIC ([2]; read-out: MIC): 33.3 µg/mL (≈ 89.4 µM); activity in the HCV assay in vitro (hepatitis C virus (HCV)): devoid of any activity |
| C[C@@H]1CO[C@@H]2C3=C(C(=O)C=CC3=O)[C@@H](O)[C@H]3[C@H](C(=O)O)CC[C@H]4[C@@H]1CC[C@@]324 [Compound 6, 14-Hydroxy-dihydropleurotinic acid] |  |  |  | 22 µg/mL (≈ 59.1 µM) | 23 µg/mL (≈ 61.8 µM) | - | - | - | - | - | - | - | - | MIC (Bacillus subtilis DSM10): - |
| C[C@@H]1CO[C@@H]2c3c(O)ccc(O)c3C[C@H]3[C@H](C(=O)O)CC[C@H]4[C@@H]1CC[C@@]243 [Compound 7, Leucopleurotinic acid] |  |  |  | 20 µg/mL (≈ 55.8 µM) | 17 µg/mL (≈ 47.4 µM) | - | - | - | - | - | - | - | - | MIC (Bacillus subtilis DSM10): - |
| C[C@@H]1CO[C@@H]2c3c(O)ccc(O)c3C(=O)[C@H]3[C@H](C(=O)O)CC[C@H]4[C@@H]1CC[C@@]243 [Compound 8, 14-oxo-leucopleuotinic acid] | 50 µg/mL (≈ 134 µM) |  |  | 22 µg/mL (≈ 59.1 µM) | 22 µg/mL (≈ 59.1 µM) | - | - | - | - | - | - | - | - |  |
| C=C1CO[C@@H]2c3c(O)ccc(O)c3[C@H]3OC(=O)[C@@H]4CC[C@H]5[C@@H]1CC[C@@]25[C@@H]34 [Compound 9, Nematoctone] |  | 25 µg/mL (≈ 70.5 µM) |  | 18 µg/mL (≈ 50.8 µM) | 21 µg/mL (≈ 59.3 µM) | - | - | - | - | - | - |  | - | MIC (Bacillus subtilis DSM10): - |
| C[C@H](CO)[C@H]1CC[C@]23C(=O)c4c(O)ccc(O)c4C(=O)[C@H]2[C@H](C(=O)O)CC[C@@H]13 [Compound 10, Di-oxo-leucopleurotinic acid] | 100 µg/mL (≈ 257 µM) |  |  | 22 µg/mL (≈ 56.6 µM) | 22 µg/mL (≈ 56.6 µM) | - | - | - | - | - | - | - | - |  |
| CC(C)(O)C1CCC23CC4=C(CC2C(O)(CO)CCC13)C(=O)C=CC4=O (stereo not drawn) [Compound 11, 4-Hydroxypleurogrisein] | 50 µg/mL (≈ 139 µM) |  | 33.3 µg/mL (≈ 92.4 µM) | 7.5 µg/mL (≈ 20.8 µM) | 6.9 µg/mL (≈ 19.1 µM) | - | - |  | - | - |  | - | - | MIC ([1]; read-out: MIC): 66.7 µg/mL (≈ 185 µM); IC50 (hepatitis C virus (HCV); Hepatitis C virus, Huh7.5, read-out: IC50 of HCV infectivity): ~5 µg/mL (≈ 13.9 µM); activity in the HCV assay in vitro (hepatitis C virus (HCV)): significant activities in vitro; inhibitory effect on HCV infectivity (hepatitis C virus (HCV); at 10 ng/µL): strong inhibitory effect; cytotoxic effects (cell viability, firefly luciferase) (Huh7.5 Fluc cells): cytotoxic effects were noted |
| C/C(=C\c1csc(C)n1)[C@@H]1C[C@@H]2O[C@]2(C)CCC[C@H](C)[C@H](O)[C@@H](C)C(=O)C(C)(C)[C@@H](O)CC(=O)O1 [Epothilone B, reference compound] |  |  |  | 3e-05 µg/mL (≈ 5.91e-05 µM) | 0.00062 µg/mL (≈ 0.00122 µM) |  |  |  |  |  |  |  |  |  |
| C[C@@H]1[C@H](O)[C@@H](C)/C=C/C=C/CC/C=C/C=C/C=C/C=C/C(O[C@H]2O[C@H](C)[C@@H](O)[C@H](N)[C@@H]2O)CC2O[C@](O)(CC(O)C(O)CCC(O)CC(O)CC(O)CC(=O)O[C@H]1C)CC(O)C2C(=O)O (stereo partly drawn) [Nystatin, reference compound] |  |  |  |  |  | Nystatin (16.7) µg/mL | Nystatin (12.5) µg/mL |  | Nystatin (16.7) µg/mL | Nystatin (16.7) µg/mL |  | Nystatin (12.5) µg/mL | Nystatin (16.7) µg/mL |  |
| CN(C)[C@@H]1C(O)=C(C(N)=O)C(=O)[C@@]2(O)C(O)=C3C(=O)c4c(O)cccc4[C@@](C)(O)[C@H]3[C@H](O)[C@@H]12 [Oxytetracycline, reference compound] |  |  | 6.7 µg/mL (≈ 14.6 µM) |  |  |  |  |  |  |  |  |  |  | MIC ([1]; read-out: MIC): 0.4 µg/mL (≈ 0.869 µM) |
| Penicillin [reference compound] |  |  |  |  |  |  |  |  |  |  |  |  |  | MIC (Bacillus subtilis DSM10): Penicillin (6.3) µg/mL |
